The results in this text go back to publication PMC12515225, “Targeting neuroblastoma with hydroxamic acid based HDAC1 and HDAC2 inhibitors: Insights from in vitro and in vivo studies” (Investigational New Drugs, 2025).

The target in assay [1] is HDAC2 (Homo sapiens, UniProt Q92769). As to the kind of experiment: fluorogenic HDAC activity assay with HDAC2 protein (BPS […]), Boc-Lys(Ac)-AMC substrate. It counts as biochemical.
Assay [2] concerns the target HDAC1 (Homo sapiens, UniProt Q13547). Briefly: fluorogenic HDAC activity assay with HDAC1 protein (BPS […]), Boc-Lys(Ac)-AMC substrate. It counts as biochemical.

Sequence of HDAC2 (Q92769 whole entry): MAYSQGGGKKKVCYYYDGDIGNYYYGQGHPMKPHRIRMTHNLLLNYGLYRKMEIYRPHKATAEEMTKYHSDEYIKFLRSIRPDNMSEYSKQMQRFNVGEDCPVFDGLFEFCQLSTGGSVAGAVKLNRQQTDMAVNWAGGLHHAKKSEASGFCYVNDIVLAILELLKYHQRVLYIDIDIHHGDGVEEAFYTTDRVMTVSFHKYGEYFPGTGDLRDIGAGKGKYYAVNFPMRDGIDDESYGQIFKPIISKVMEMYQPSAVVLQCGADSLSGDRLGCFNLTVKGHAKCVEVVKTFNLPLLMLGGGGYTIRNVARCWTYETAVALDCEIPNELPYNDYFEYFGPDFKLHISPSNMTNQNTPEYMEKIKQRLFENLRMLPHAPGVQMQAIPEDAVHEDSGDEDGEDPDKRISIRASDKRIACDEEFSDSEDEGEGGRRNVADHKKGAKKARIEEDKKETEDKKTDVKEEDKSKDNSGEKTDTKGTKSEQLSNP
Sequence of HDAC1 (Q13547 whole entry): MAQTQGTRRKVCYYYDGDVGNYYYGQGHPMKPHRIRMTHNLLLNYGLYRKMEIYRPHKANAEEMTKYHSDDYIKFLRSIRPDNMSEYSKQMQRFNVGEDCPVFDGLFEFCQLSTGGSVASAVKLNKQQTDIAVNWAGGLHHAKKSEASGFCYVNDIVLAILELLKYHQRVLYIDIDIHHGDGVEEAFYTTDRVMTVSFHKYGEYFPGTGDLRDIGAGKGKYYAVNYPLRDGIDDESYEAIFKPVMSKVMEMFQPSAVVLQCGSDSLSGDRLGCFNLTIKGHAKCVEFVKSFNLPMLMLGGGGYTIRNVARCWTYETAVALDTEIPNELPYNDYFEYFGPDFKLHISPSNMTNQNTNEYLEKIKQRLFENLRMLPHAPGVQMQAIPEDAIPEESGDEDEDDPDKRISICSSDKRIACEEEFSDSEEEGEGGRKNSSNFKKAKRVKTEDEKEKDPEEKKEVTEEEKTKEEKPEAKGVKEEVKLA

As a reminder, the IC50 is the point on the concentration scale where inhibition reaches its midpoint. In turn, `O=C(NO)c1cccc(-c2ccccn2)n1` [3A, N-hydroxy[2,2'-bipyridine]-6-carboxamide] displayed an IC50 in assay [1] of 0.89 µM. This lies in the sub-micromolar range.
As to `O=C(CCCCCCC(=O)Nc1cccc(-c2ccccn2)n1)NO` [3B, N^1-([2,2'-bipyridin]-6-yl)-N^8-hydroxyoctanediamide], the IC50 in assay [2] came out at 0.44 µM; in assay [1], 1.94 µM.
